According to patent US20260085062A1, “NOVEL COMPOUNDS AS CK2 INHIBITORS” (Cambridge Enterprise Limited, priority 2022, published 2026):
pIC50: −log10 of the molar value.

How the values were obtained:
CK2α = target: T1, CK2α (Homo sapiens, UniProt P68400); experiment: Biochemical assay for inhibitors of CK2α kinase activity (ADP-Glo); details: 0.2 nM CK2α, 50 μM peptide substrate, 15 μM ATP, read-out: Assay 1: CK2α Enzyme IC50
T1 construct: CK2α (residues 2-329) was produced in Escherichia coli BL21 (DE3) for kinase activity screening; His6 (N, cleaved yes); made in house; host or cells: Escherichia coli BL21 (DE3)
T1 sequence (P68400 2-329): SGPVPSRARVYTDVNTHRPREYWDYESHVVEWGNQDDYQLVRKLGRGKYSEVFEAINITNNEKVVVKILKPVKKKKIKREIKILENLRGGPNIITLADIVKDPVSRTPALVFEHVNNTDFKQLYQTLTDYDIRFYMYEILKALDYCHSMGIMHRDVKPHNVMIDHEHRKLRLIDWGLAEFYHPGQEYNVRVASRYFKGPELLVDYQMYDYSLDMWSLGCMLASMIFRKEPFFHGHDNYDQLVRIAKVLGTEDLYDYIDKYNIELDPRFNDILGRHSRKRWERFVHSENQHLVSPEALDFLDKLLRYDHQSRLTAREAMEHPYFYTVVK

CLK2 = target: T2, CLK2 (Homo sapiens, UniProt P49760); experiment: Biochemical assay for inhibitors of CLK2 kinase activity (ADP-Glo); details: 20 nM CLK2, 50 μM peptide substrate, 100 μM ATP, read-out: Assay 2: CLK2 Enzyme IC50
T2 construct: purchased Carna Biosciences 04-127

intracellular CK2α = target: T3, intracellular CK2α (Homo sapiens, UniProt P19784); experiment: Cell-based NanoBRET assay for inhibitor binding to intracellular CK2α; details: HCT116 cells transiently transfected with CSNK2A2-NanoLuc fusion vector; Tracer K-5; 2 h; read-out: Assay 3: NanoBRET ™ assay for binding to intracellular CK2α
T3 construct: host or cells: HCT116 (ATCC CCL-247)
Procedure, shortened: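 Living cells expressing NanoLuc-CK2α fusion were given a fixed tracer concentration, and compounds competitively displaced the reversibly bound tracer. Donor (450 nm) and acceptor (610 or 630 nm) emissions were read; BRET ratio = (acceptor/donor)×1,000, giving apparent intracellular affinity.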

T3 sequence (P19784 whole entry, the tested form may be a part): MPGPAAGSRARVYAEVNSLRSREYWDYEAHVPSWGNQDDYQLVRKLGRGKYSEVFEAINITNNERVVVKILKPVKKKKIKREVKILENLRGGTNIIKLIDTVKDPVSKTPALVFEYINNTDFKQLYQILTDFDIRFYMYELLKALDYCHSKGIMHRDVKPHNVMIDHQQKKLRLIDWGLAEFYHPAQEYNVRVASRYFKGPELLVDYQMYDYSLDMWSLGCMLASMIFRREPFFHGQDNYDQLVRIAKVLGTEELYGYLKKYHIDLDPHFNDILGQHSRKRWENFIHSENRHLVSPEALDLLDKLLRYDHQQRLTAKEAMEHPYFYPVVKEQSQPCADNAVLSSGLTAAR
T2 sequence (P49760 whole entry): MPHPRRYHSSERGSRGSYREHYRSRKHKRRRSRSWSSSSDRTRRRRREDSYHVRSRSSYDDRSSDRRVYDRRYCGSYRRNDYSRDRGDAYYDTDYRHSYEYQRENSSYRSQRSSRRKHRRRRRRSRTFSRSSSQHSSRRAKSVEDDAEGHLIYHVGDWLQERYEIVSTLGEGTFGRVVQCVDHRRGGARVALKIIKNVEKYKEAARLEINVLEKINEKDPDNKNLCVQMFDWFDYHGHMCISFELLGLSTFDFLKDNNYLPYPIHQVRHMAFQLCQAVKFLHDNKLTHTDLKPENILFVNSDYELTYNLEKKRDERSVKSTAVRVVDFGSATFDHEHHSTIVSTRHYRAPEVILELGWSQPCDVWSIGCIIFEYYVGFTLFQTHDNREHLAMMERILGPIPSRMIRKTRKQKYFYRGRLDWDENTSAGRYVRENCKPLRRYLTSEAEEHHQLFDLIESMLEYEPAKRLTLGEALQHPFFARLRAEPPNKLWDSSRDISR

pIC50 (CK2α)	pIC50 (CLK2)	pIC50 (intracellular CK2α)	Compound
7.35	5.71	6.13	O=C(CCNCc1ccc(-c2ccccc2)c(Cl)c1)NCCCNc1cc(-c2cncnc2)cc2[nH]ncc12 [Example 73, 3-(((2-chloro-[1,1′-biphenyl]-4-yl)methyl)amino)-N-(3-((6-(pyrimidin-5-yl)-1H-indazol-4-yl)amino)propyl)propanamide]
8.28	5.57	6.09	N#CCc1cc(CNCCCCOC2CN(c3cc(-c4ccnnc4)cc4[nH]ncc34)C2)cc(OC(F)(F)F)c1 [Example 134, 2-(3-(((4-((1-(6-(pyridazin-4-yl)-1H-indazol-4-yl)azetidin-3-yl)oxy)butyl)amino)methyl)-5-(trifluoromethoxy)phenyl)acetonitrile]
9.00	5.59	6.09	O=C(CCNCc1ccc(-c2ccccc2)c(Cl)c1)NCCCNc1cc(-c2cc[n+]([O-])cc2)cc2[nH]ncc12 [Example 30, 4-(4-((3-(3-(((2-chloro-[1,1′-biphenyl]-4-yl)methyl)amino)propanamido)propyl)amino)-1H-indazol-6-yl)pyridine 1-oxide]
7.85	6.43	5.47	FC(F)(F)Oc1ccc(CNCCc2nnc(CCNc3cc(-n4cnnc4)cc4[nH]ncc34)[nH]2)cc1Cl [Example 16, N-(2-(5-(2-((3-chloro-4-(trifluoromethoxy)benzyl)amino)ethyl)-4H-1,2,4-triazol-3-yl)ethyl)-6-(4H-1,2,4-triazol-4-yl)-1H-indazol-4-amine]
8.06	6.52	6.28	N#CCc1cc(CNCCCCOC2CN(c3cc(-n4cnnc4)cc4[nH]ncc34)C2)cc(OC(F)(F)F)c1 [Example 147, 2-(3-(((4-((1-(6-(4H-1,2,4-triazol-4-yl)-1H-indazol-4-yl)azetidin-3-yl)oxy)butyl)amino)methyl)-5-(trifluoromethoxy)phenyl)acetonitrile]
8.69	6.18	6.71	O=C(CCNCc1ccc(OC(F)(F)F)c(Cl)c1)NCCCNc1cc(-n2ccnn2)cc2[nH]ncc12 [Example 161, N-(3-((6-(1H-1,2,3-triazol-1-yl)-1H-indazol-4-yl)amino)propyl)-3-((3-chloro-4-(trifluoromethoxy)benzyl)amino)propanamide]
9.05	6.39	7.12	O=C(CCNCc1ccc(-c2ccccc2)c(Cl)c1)NCCCNc1cc(-c2ccncn2)cc2[nH]ncc12 [Example 75, 3-(((2-chloro-[1,1′-biphenyl]-4-yl)methyl)amino)-N-(3-((6-(pyrimidin-4-yl)-1H-indazol-4-yl)amino)propyl)propanamide]
7.97	6.18	6.42	C[C@@H](CCCOCCNc1cc(-n2cnnc2)cc2[nH]ncc12)NCc1cc(CO)cc(OC(F)(F)F)c1 [Example 192, (S)-(3-(((5-(2-((6-(4H-1,2,4-triazol-4-yl)-1H-indazol-4-yl)amino)ethoxy)pentan-2-yl)amino)methyl)-5-(trifluoromethoxy)phenyl)methanol]
7.69	5.35	6.06	O=C(CCNCc1ccc(-c2ccccc2)c(Cl)c1)NCCCNc1cc(-c2cccnc2)cc2[nH]ncc12 [Example 26, 3-(((2-chloro-[1,1'-biphenyl]-4-yl)methyl)amino)-N-(3-((6-(pyridin-3-yl)-1H-indazol-4-yl)amino)propyl)propanamide]
7.90	6.67	6.33	OCCOc1cc(CNC2CC(COCCNc3cc(-c4cnns4)cc4[nH]ncc34)C2)cc(OC(F)(F)F)c1 (stereo not drawn) [Example 205]
7.63	5.73	5.67	O=C(CCNCc1ccc(-c2ccccc2)c(Cl)c1)NCCCNc1cc(C2CCOC2)cc2[nH]ncc12 (stereo not drawn) [Example 82, 3-(((2-chloro-[1,1′-biphenyl]-4-yl)methyl)amino)-N-(3-((6-(tetrahydrofuran-3-yl)-1H-indazol-4-yl)amino)propyl)propanamide]
8.53	6.35	6.46	Cc1cc(-c2cc(NCCCNC(=O)CCNCc3ccc(-c4ccccc4)c(Cl)c3)c3cn[nH]c3c2)ccn1 [Example 21, 3-(((2-Chloro-[1,1′-biphenyl]-4-yl)methyl)amino)-N-(3-((6-(2-methylpyridin-4-yl)-1H-indazol-4-yl)amino)propyl)propanamide]
7.88	6.48	5.54	FC(F)(F)Oc1ccc(CNCCCCOC2CN(c3cc(-c4cnoc4)cc4[nH]ncc34)C2)cc1Cl [Example 137, N-(3-chloro-4-(trifluoromethoxy)benzyl)-4-((1-(6-(isoxazol-4-yl)-1H-indazol-4-yl)azetidin-3-yl)oxy)butan-1-amine]
7.90	5.91	5.23	NC(=O)c1cc(NCCCNC(=O)CCNCc2ccc(-c3ccccc3)c(Cl)c2)c2cn[nH]c2c1 [Example 2, 4-((3-(3-(((2-chloro-[1,1′-biphenyl]-4-yl)methyl)amino)propanamido)propyl)amino)-1H-indazole-6-carboxamide]
8.18	5.19	< 4.30	O=C(CCNCc1ccc(OC(F)(F)F)c(Cl)c1)NCCCNc1cc(-c2cc[nH]c(=O)n2)cc2[nH]ncc12 [Example 170, 3-((3-chloro-4-(trifluoromethoxy)benzyl)amino)-N-(3-((6-(2-oxo-1,2-dihydropyrimidin-4-yl)-1H-indazol-4-yl)amino)propyl)propanamide]
7.33	5.72	5.09	Cc1nccn1-c1cc(NCCCNC(=O)CCNCc2ccc(-c3ccccc3)c(Cl)c2)c2cn[nH]c2c1 [Example 80, 3-(((2-chloro-[1,1′-biphenyl]-4-yl)methyl)amino)-N-(3-((6-(2-methyl-1H-imidazol-1-yl)-1H-indazol-4-yl)amino)propyl)propanamide]
7.96	6.35	6.06	FC(F)(F)Oc1ccc(CNCCCCOC2CN(c3cc(-n4cnnc4)cc4[nH]ncc34)C2)cc1Cl [Example 132, 4-((1-(6-(4H-1,2,4-triazol-4-yl)-1H-indazol-4-yl)azetidin-3-yl)oxy)-N-(3-chloro-4-(trifluoromethoxy)benzyl)butan-1-amine]
8.86	6.65	6.91	O=C(CCNCc1ccc(-c2ccccc2)c(Cl)c1)NCCCNc1cc(-c2ccncc2)cc2[nH]ncc12 [Example 1, 3-(((2-Chloro-[1,1′-biphenyl]-4-yl)methyl)amino)-N-(3-((6-(pyridin-4-yl)-1H-indazol-4-yl)amino)propyl)propanamide]
7.38	6.43	4.57	Cc1cc(CC#N)cc(CNCCCCOC2CN(c3cc(-n4cnnc4)cc4[nH]ncc34)C2)c1 [Example 106, 2-(3-(((4-((1-(6-(4H-12,4-triazol-4-yl)-1H-indazol-4-yl)azetidin-3-yl)oxy)butyl)amino)methyl)-5-methylphenyl)acetonitrile]
7.48	6.91	5.47	OCc1cc(Cl)cc(CNCCCCOC2CN(c3cc(-c4cnoc4)cc4[nH]ncc34)C2)c1 [Example 136, (3-chloro-5-(((4-((1-(6-(isoxazol-4-yl)-1H-indazol-4-yl)azetidin-3-yl)oxy)butyl)amino)methyl)phenyl)methanol]
7.77	6.35	4.94	O=C(CCNCc1ccc(OC(F)(F)F)c(Cl)c1)NCCCNc1cc(-n2cnnc2)c(Cl)c2[nH]ncc12 [Example 181, 3-((3-chloro-4-(trifluoromethoxy)benzyl)amino)-N-(3-((7-chloro-6-(4H-1,2,4-triazol-4-yl)-1H-indazol-4-yl)amino)propyl)propanamide]
6.87	4.93	4.47	FC(F)(F)Oc1ccc(CNCCCCOC2CN(c3cc(-n4cnnc4)cc4[nH]nnc34)C2)cc1Cl [Example 153, 4-((1-(6-(4H-1,2,4-triazol-4-yl)-1H-benzo[d][1,2,3]triazol-4-yl)azetidin-3-yl)oxy)-N-(3-chloro-4-(trifluoromethoxy)benzyl)butan-1-amine]

Compound	pIC50 (CK2α)	pIC50 (CLK2)	pIC50 (intracellular CK2α)
Cc1nncn1-c1cc(NCCOCCCCNCc2cc3cc(C(F)(F)F)ccc3[nH]2)c2cn[nH]c2c1 [Example 86, 6-(3-methyl-4H-1,2,4-triazol-4-yl)-N-(2-(4-(((5-(trifluoromethyl)-1H-indol-2-yl)methyl)amino)butoxy)ethyl)-1H-indazol-4-amine]	8.20	5.78	5.87
FC(F)(F)Oc1ccc(CNCCCCOCCNc2cc(-n3cnnc3)cc3[nH]nnc23)cc1Cl [Example 126, N-(2-(4-((3-chloro-4-(trifluoromethoxy)benzyl)amino)butoxy)ethyl)-6-(4H-1,2,4-triazol-4-yl)-1H-benzo[d][1,2,3]triazol-4-amine]	7.96	4.74	5.44
